Experimental data reported in US9896423B2, “Deuterium substituted 1-[2-(2,4-dimethyl-phenylsulfanyl)-phenyl]piperazine compound or derivatives thereof, and pharmaceutical composition and use thereof” (Jiangsu Jibeier Pharmaceutical Co. Ltd., priority 2014, dated 2018).
Values joined by “and” are separate entries in the source; they are usually repeats but may differ in a detail not shown here. Identical values can stand only once. Like-named read-outs stand apart in the source and are kept apart here.

Assays:
[1] = Pharmacokinetic test in rats, intravenous injection; type: in vivo, SD rats; settings: for Concentrations in Plasma of Rats after Intravenous Injection / concentration at 0.05 h / concentration at 0.133 h / concentration at 4 h / concentration at 6 h / concentration at 9 h / concentration at 12 h / concentration at 24 h / concentration at 0.25 h / concentration at 0.5 h / concentration at 1 h / concentration at 2 h / concentration at 3 h: 2 mg/kg iv; for concentration at 0.05 h / concentration at 0.133 h / concentration at 4 h / concentration at 6 h / concentration at 9 h / concentration at 12 h / concentration at 24 h / concentration at 0.25 h / concentration at 0.5 h / concentration at 1 h / concentration at 2 h / concentration at 3 h: intravenous; for concentration at 0.25 h / concentration at 0.5 h / concentration at 1 h / concentration at 2 h / concentration at 3 h: Sprague-Dawley
Method: The preferred compound of the present disclosure was assessed in rats for its pharmacokinetic profile.
SD rats, male and female, weighing 150 to 250 g
Mobile phase: 10 mM ammonium formate aqueous solution:methanol=15:85
The ionization source was electrospray ionization source. The detection mode was positive mode. Multiple reaction monitoring (MRM) was used as the scanning mode. The ion reaction for the quantitative analysis was the following: m/z was 305.2\150.0 for XX, and 256.1\167.1 for diphenhydramine (the internal standard).
Four male SD rats were taken. The dosage was calculated as 5 mL/kg body weight and 2 mg/kg. XX or YY was dissolved in DMSO (3% of a total volume) and castor oil (3% of the total volume) was added to the solution, followed by agitating with a vortex mixer. Subsequently, saline was added to the mixture to the total volume to afford the intravenous injection for the rats. The injections were intravenously administered to four male SD rats. Blood from the rats' orbits was collected 3 min, 8 min, 15 min, 30 min, 1 hr, 2 hr, 3 hr, 4 hr, 6 hr, 9 hr, 12 hr and 24 hr later after the injection, respectively.
After the blood collection, the tubes were immediately gently turned upside down at least five times to ensure sufficient mixing, and placed on ice. Heparin was added for anticoagulation. The samples were centrifuged at 8000 rpm for 5 min to separate serum from erythrocyte. The serum was transferred with a pipettor to 2 mL polypropylene (PP) tubes, which were marked with the name of the compound and the time points, and stored in a refrigerator at −40° C. before LC-MS analysis. Samples with high concentrations were diluted with rat blank plasma.
2.5 μL of Meth-H2O and 5 μL of the internal standard solution (20 ng/mL, IS) were added to 50 μL of the plasma. Subsequently, 150 μL of methanol was added to the mixture to precipitate protein and the samples were then centrifuged at 13000 rpm for 5 min. The upper organic phase was taken out, filtrated with a 0.22 μM microporous membrane, and 2 μL of the sample was injected for the LC-MS analysis.

Male ICR mice = assay: Mice tail suspension test; type: in vivo
Text: The following method is used for testing the antidepression effect of the compound of the present application. ICR mice or SD rats, gavaged for two successive weeks, were subjected to mice swimming test, mice tail suspension test and rats swimming test. See below for details of the tests and results.
The animals, medicaments, calculation of dosages to the mice, preparation of drug solution and apparatus are the same as those in the mice swimming test.
The medicaments were correspondingly administered by gavage, once a day, to the animals in the groups for 14 successive days, with the amount of 0.2 ml per 10 g of body weight. The mice were subjected to tail suspension one hour later after the last oral administration. The suspension continued for 6 min.
The data was given as “average±standard deviation” (x±s). One-way analysis of variance (ANOVA) was used for data difference statistics. Differences among the groups were determined by P<0.05.

[2] = single oral dose of [14C]-labeled vortioxetine; cited from earlier work
[3] = rats, iv 2 mg/kg, individual rats, 2 mg/kg

## Cc1ccc(Sc2ccccc2N2CCNCC2)c(C)c1 [YY, 1-[2-(2,4-dimethyl-phenylsulfanyl)-phenyl]piperazine]
[1]; 0.05 h after administration, individual rats
  Concentrations in Plasma of Rats after Intravenous Injection: 123.2 ng/mL and 127.2 ng/mL
[1]; 0.133 h, individual rats
  Concentrations in Plasma of Rats after Intravenous Injection: 89 ng/mL and 85.9 ng/mL
[1]; 0.25 h, individual rats
  Concentrations in Plasma of Rats after Intravenous Injection: 78.8 ng/mL and 77.3 ng/mL
[1]; 0.5 h, individual rats
  Concentrations in Plasma of Rats after Intravenous Injection: 76.9 ng/mL and 71.3 ng/mL
[1]; 1 h, individual rats
  Concentrations in Plasma of Rats after Intravenous Injection: 73.3 ng/mL and 68.6 ng/mL
[1]; 2 h, individual rats
  Concentrations in Plasma of Rats after Intravenous Injection: 69.5 ng/mL and 68.1 ng/mL
[1]; 3 h, individual rats
  Concentrations in Plasma of Rats after Intravenous Injection: 53.4 ng/mL and 49.8 ng/mL
[1]; 4 h, individual rats
  Concentrations in Plasma of Rats after Intravenous Injection: 38.5 ng/mL and 27.6 ng/mL
[1]; 6 h, individual rats
  Concentrations in Plasma of Rats after Intravenous Injection: 28.4 ng/mL and 25.8 ng/mL
[1]; 9 h, individual rats
  Concentrations in Plasma of Rats after Intravenous Injection: 16.1 ng/mL and 18.6 ng/mL
[1]; 12 h, individual rats
  Concentrations in Plasma of Rats after Intravenous Injection: 7.86 ng/mL and 7.50 ng/mL
[1]; 24 h, individual rats
  Concentrations in Plasma of Rats after Intravenous Injection: 2.57 ng/mL and 2.89 ng/mL
[1]; male, SD, rat, plasma, 2 mg/kg, 0.05 h, mean, read-out: Concentrations in Plasma of Rats after Intravenous Injection, Mean ± SD
  concentration at 0.05 h: 214 ± 38.9 ng/mL
[1]; male, SD, rat, plasma, 2 mg/kg, 0.05 h after administration, individual rats, read-out: Concentrations in Plasma of Rats after Intravenous Injection
  concentration at 0.05 h: 134 ng/mL
[1]; male, SD, rat, plasma, 2 mg/kg, 0.133 h, individual rats, read-out: Concentrations in Plasma of Rats after Intravenous Injection
  concentration at 0.133 h: 86.5 ng/mL
[1]; male, SD, rat, plasma, 2 mg/kg, 0.133 h, mean, read-out: Concentrations in Plasma of Rats after Intravenous Injection, Mean ± SD
  concentration at 0.133 h: 170 ± 7.8 ng/mL
[1]; male, SD, rat, plasma, 2 mg/kg, 4 h, individual rats, read-out: Concentrations in Plasma of Rats after Intravenous Injection
  concentration at 4 h: 27.2 ng/mL
[1]; male, SD, rat, plasma, 2 mg/kg, 4 h, mean, read-out: Concentrations in Plasma of Rats after Intravenous Injection, Mean ± SD
  concentration at 4 h: 40.9 ± 3.4 ng/mL
[1]; male, SD, rat, plasma, 2 mg/kg, 6 h, individual rats, read-out: Concentrations in Plasma of Rats after Intravenous Injection
  concentration at 6 h: 25.8 ng/mL
[1]; male, SD, rat, plasma, 2 mg/kg, 6 h, mean, read-out: Concentrations in Plasma of Rats after Intravenous Injection, Mean ± SD
  concentration at 6 h: 33.1 ± 3.43 ng/mL
[1]; male, SD, rat, plasma, 2 mg/kg, 9 h, individual rats, read-out: Concentrations in Plasma of Rats after Intravenous Injection
  concentration at 9 h: 14.9 ng/mL
[1]; male, SD, rat, plasma, 2 mg/kg, 9 h, mean, read-out: Concentrations in Plasma of Rats after Intravenous Injection, Mean ± SD
  concentration at 9 h: 19.5 ± 1.49 ng/mL
[1]; male, SD, rat, plasma, 2 mg/kg, 12 h, individual rats, read-out: Concentrations in Plasma of Rats after Intravenous Injection
  concentration at 12 h: 8.44 ng/mL
[1]; male, SD, rat, plasma, 2 mg/kg, 12 h, mean, read-out: Concentrations in Plasma of Rats after Intravenous Injection, Mean ± SD
  concentration at 12 h: 7.85 ± 0.62 ng/mL
[1]; male, SD, rat, plasma, 2 mg/kg, 24 h, individual rats, read-out: Concentrations in Plasma of Rats after Intravenous Injection
  concentration at 24 h: 3.38 ng/mL
[1]; male, SD, rat, plasma, 2 mg/kg, 24 h, mean, read-out: Concentrations in Plasma of Rats after Intravenous Injection, Mean ± SD
  concentration at 24 h: 4.07 ± 0.05 ng/mL
[1]; male, SD, rat, plasma, iv, 2 mg/kg, rats, iv 2 mg/kg, XX n = 4, YY n = 3, read-out: AUC0-∞, Mean ± SD
  AUC(0-inf): 654 ± 23.9 ng·h/mL
[1]; male, SD, rat, plasma, iv, 2 mg/kg, rats, iv 2 mg/kg, XX n = 4, YY n = 3, read-out: Cmax, Mean ± SD
  Cmax: 214 ± 38.9 ng/mL
[1]; male, SD, rat, plasma, iv, 2 mg/kg, rats, iv 2 mg/kg, XX n = 4, YY n = 3, read-out: MRT0-∞, Mean ± SD
  MRT inf: 6.42 ± 0.19 h
[1]; male, SD, rat, plasma, iv, 2 mg/kg, rats, iv 2 mg/kg, XX n = 4, YY n = 3, read-out: Vz, Mean ± SD
  Vd: 26.6 ± 0.52 L/kg
[1]; male, SD, rat, plasma, iv, 2 mg/kg, rats, iv 2 mg/kg, XX n = 4, YY n = 3, read-out: t1/2, Mean ± SD (converted)
  half-life: 6.03 ± 0.27 h
[1]; male, SD, rat, plasma, iv, 2 mg/kg, rats, iv 2 mg/kg, individual rats 1-3 (Table 11), read-out: AUC0-t
  AUC(0-t): 594 ng·h/mL
[1]; male, SD, rat, plasma, iv, 2 mg/kg, rats, iv 2 mg/kg, individual rats, read-out: AUC0-∞
  AUC(0-inf): 628 ng·h/mL
[1]; male, SD, rat, plasma, iv, 2 mg/kg, rats, iv 2 mg/kg, individual rats, read-out: Cmax
  Cmax: 225 ng/mL
[1]; male, SD, rat, plasma, iv, 2 mg/kg, rats, iv 2 mg/kg, individual rats, read-out: MRT0-∞
  MRT inf: 6.56 h
[1]; male, SD, rat, plasma, iv, 2 mg/kg, rats, iv 2 mg/kg, individual rats, read-out: Vz
  Vd: 26.3 L/kg
[1]; male, SD, rat, plasma, iv, 2 mg/kg, rats, iv 2 mg/kg, individual rats, read-out: t1/2 (converted)
  half-life: 5.72 h
[1]; male, SD, rat, plasma, iv, 2 mg/kg, rats, iv 2 mg/kg, n = 3 (Table 11), read-out: AUC0-t, Mean ± SD
  AUC(0-t): 619 ± 22.2 ng·h/mL
[1]; male, rat, plasma, 2 mg/kg, 0.25 h, individual rats, read-out: Concentrations in Plasma of Rats after Intravenous Injection
  concentration at 0.25 h: 78.1 ng/mL
[1]; male, rat, plasma, 2 mg/kg, 0.25 h, mean, read-out: Concentrations in Plasma of Rats after Intravenous Injection, Mean ± SD
  concentration at 0.25 h: 137 ± 6.05 ng/mL
[1]; male, rat, plasma, 2 mg/kg, 0.5 h, individual rats, read-out: Concentrations in Plasma of Rats after Intravenous Injection
  concentration at 0.5 h: 76.6 ng/mL
[1]; male, rat, plasma, 2 mg/kg, 0.5 h, mean, read-out: Concentrations in Plasma of Rats after Intravenous Injection, Mean ± SD
  concentration at 0.5 h: 124 ± 13 ng/mL
[1]; male, rat, plasma, 2 mg/kg, 1 h, individual rats, read-out: Concentrations in Plasma of Rats after Intravenous Injection
  concentration at 1 h: 72.2 ng/mL
[1]; male, rat, plasma, 2 mg/kg, 1 h, mean, read-out: Concentrations in Plasma of Rats after Intravenous Injection, Mean ± SD
  concentration at 1 h: 94.2 ± 6.06 ng/mL
[1]; male, rat, plasma, 2 mg/kg, 2 h, individual rats, read-out: Concentrations in Plasma of Rats after Intravenous Injection
  concentration at 2 h: 60.7 ng/mL
[1]; male, rat, plasma, 2 mg/kg, 2 h, mean, read-out: Concentrations in Plasma of Rats after Intravenous Injection, Mean ± SD
  concentration at 2 h: 86.4 ± 16.8 ng/mL
[1]; male, rat, plasma, 2 mg/kg, 3 h, individual rats, read-out: Concentrations in Plasma of Rats after Intravenous Injection
  concentration at 3 h: 49.6 ng/mL
[1]; male, rat, plasma, 2 mg/kg, 3 h, mean, read-out: Concentrations in Plasma of Rats after Intravenous Injection, Mean ± SD
  concentration at 3 h: 67 ± 10.2 ng/mL
[1]; rats, iv 2 mg/kg, XX n = 4, YY n = 3
  CL, Mean ± SD: 3.06 ± 0.11 L/h/k
[1]; rats, iv 2 mg/kg, individual rats 1-3 (Table 11), 2 mg/kg
  AUC(0-t): 637.9 ng·h/mL and 624.3 ng·h/mL
[1]; [3]
  AUC0-∞: 674.6 ng·h/mL and 660.5 ng·h/mL
  CL: 3.19 L/h/k and 2.97 L/h/k and 3.03 L/h/k
  Cmax: 246.0 ng/mL and 170.6 ng/mL
  MRT0-∞: 6.20 h and 6.50 h
  Vz: 27.2 L/kg
  t1/2: 6.15 h and 6.22 h
Male ICR mice; 3 mg/kg gavage, two successive weeks
  effect on length of time that the tail-suspended mice stopped moving vs blank control: did not shorten
Male ICR mice; mice tail suspension, gavage 14 days, 3 mg/kg, n = 10, x ± s
  Duration without Move within 6 min: 284.9 ± 51.2 s
[2]
  radioactive metabolites recovered in the feces: ~26%
  radioactive metabolites recovered in the urine: approximately 59%
